Source: US6737383B1, “Herbicidal oxadiazolidines” (priority 1999, dated 2004)

Experiments:
[1] = tested on: bamyardgrass; assay: Test B flood test barnyardgrass; assay type: in vivo, Echinochloa crus-galli
How it was run: (§1)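 Plants were grown to the 2-leaf stage before treatment with test chemical, then held in a greenhouse for twelve to sixteen days. Injury was visually rated against untreated controls on a 0–10 scale, where 0 is no effect and 10 is complete control.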

[2] = tested on: blackgrass; assay: Test B pre/postemergence blackgrass; assay type: in vivo, Alopecurus myosuroides
How it was run: (§2)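 Herbicidal effect was estimated by eye on a ten-point control scale after plants spent twelve to sixteen days in a greenhouse following soil or foliar treatment. Foliar sprays targeted plants at one to four leaves; all doses were formulated in a non-phytotoxic solvent with surfactant.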

[3] = tested on: wheat; assay: Test B pre/postemergence wheat; assay type: in vivo, Triticum aestivum
How it was run: as §2

[4] = tested on: wild oat; assay: Test B pre/postemergence wild oat; assay type: in vivo, Avena fatua
How it was run: as §2

[5] = tested on: corn; assay: Test B pre/postemergence corn; assay type: in vivo, Zea mays
How it was run: as §2

[6] = tested on: morningglory; assay: Test B pre/postemergence morningglory; assay type: in vivo, Ipomoea hederacea
How it was run: as §2

[7] = tested on: bedstraw; assay: Test B pre/postemergence bedstraw; assay type: in vivo, Galium aparine
How it was run: as §2

[8] = tested on: giant foxtail; assay: Test B pre/postemergence giant foxtail; assay type: in vivo, Setaria faberii
How it was run: as §2

[9] = tested on: velvetleaf; assay: Test B pre/postemergence velvetleaf; assay type: in vivo, Abutilon theophrasti
How it was run: as §2

[10] = tested on: rice; assay: Test B flood test rice; assay type: in vivo, Oryza sativa
How it was run: as §1

[11] = tested on: surinam grass; assay: Test B pre/postemergence surinam grass; assay type: in vivo, Brachiaria decumbens
How it was run: as §2

[12] = tested on: smallflower flatsedge; assay: Test B flood test smallflower flatsedge; assay type: in vivo, Cyperus difformis
How it was run: as §1

[13] = tested on: duck salad; assay: Test B flood test duck salad; assay type: in vivo, Heteranthera limosa
How it was run: as §1

[14] = tested on: purple nutsedge; assay: Test B pre/postemergence purple nutsedge; assay type: in vivo, Cyperus rotundus
How it was run: as §2

[15] = tested on: crabgrass; assay: Test B pre/postemergence crabgrass; assay type: in vivo, Digitaria sanguinalis
How it was run: as §2

[16] = tested on: soybean; assay: Test B pre/postemergence soybean; assay type: in vivo, Glycine max
How it was run: as §2

[17] = tested on: cocklebur; assay: Test B pre/postemergence cocklebur; assay type: in vivo, Xanthium strumarium
How it was run: as §2

[18] = Rate 31 g/ha, Pre-emergence section (flood test species), scale 0 to 10
[19] = Rate 62 g/ha, headed Pre-emergence (flood test species), scale 0 to 10 (0 no effect, 10 complete control)
[20] = Rate 125 g/ha, Pre-emergence, flood test species, scale 0 to 10 where 0 is no effect and 10 is complete control
[21] = Rate 250 g/ha, Pre-emergence, flood-test species, scale 0 to 10, 0 is no effect, 10 is complete control
[22] = Postemergence, Rate 31 g/ha, visual rating, scale 0 to 10 (0 no effect, 10 complete control)
[23] = Preemergence, Rate 31 g/ha, visual rating, scale 0 to 10 (0 no effect, 10 complete control)
[24] = Preemergence, Rate 62 g/ha, scale of 0 to 10 where 0 is no effect and 10 is complete control
[25] = Preemergence, Rate 250 g/ha, scale of 0 to 10 where 0 is no effect and 10 is complete control
[26] = Rate 62 g/ha, Postemergence, scale 0 to 10 (0 no effect, 10 complete control)
[27] = Rate 125 g/ha, Postemergence, scale of 0 to 10 where 0 is no effect and 10 is complete control
[28] = Rate 250 g/ha, Postemergence, scale of 0 to 10 where 0 is no effect and 10 is complete control

## Cc1cccc(C)c1-n1c(=O)on(C(=O)N(c2ccc(Cl)cc2Cl)C2CCC2)c1=O [Compound 318]
[1]; [18]
  Barnyardgrass plant response rating: 0
[1]; [19]
  Barnyardgrass plant response rating: 0
[1]; [20]
  Barnyardgrass plant response rating: 0
[1]; [21]
  Barnyardgrass plant response rating: 0
[2]; [22]
  Blackgrass plant response rating: 0
[2]; [23]
  Blackgrass plant response rating: 0
[2]; [24]
  Blackgrass plant response rating: 0
[2]; Preemergence, Rate 125 g/ha
  Blackgrass plant response rating (0 to 10 scale): 0
[2]; [25]
  Blackgrass plant response rating: 0
[2]; [26]
  Blackgrass plant response rating: 0
[2]; [27]
  Blackgrass plant response rating: 0
[2]; [28]
  Plant response rating, Blackgrass: 0
[3]; [22]
  Wheat plant response rating: 0
[3]; [24]
  Wheat plant response rating: 0
[3]; Preemergence, Rate 125 g/ha
  Wheat plant response rating (0 to 10 scale): 0
[3]; [25]
  Wheat plant response rating: 0
[3]; [26]
  Wheat plant response rating: 0
[3]; [27]
  Wheat plant response rating: 0
[3]; [28]
  Plant response rating, Wheat: 0
[4]; [22]
  Wild oats plant response rating: 0
[4]; [24]
  Wild oats plant response rating: 0
[4]; Preemergence, Rate 125 g/ha
  Wild oats plant response rating (0 to 10 scale): 0
[4]; [25]
  Wild oats plant response rating: 0
[4]; [26]
  Wild oats plant response rating: 0
[4]; [27]
  Wild oats plant response rating: 0
[4]; [28]
  Plant response rating, Wild oats: 0
[5]; [22]
  Corn plant response rating: 0
[5]; [23]
  Corn plant response rating: 0
[5]; [24]
  Corn plant response rating: 0
[5]; Preemergence, Rate 125 g/ha
  Corn plant response rating (0 to 10 scale): 0
[5]; [25]
  Corn plant response rating: 0
[5]; [26]
  Corn plant response rating: 0
[5]; [27]
  Corn plant response rating: 0
[5]; [28]
  Plant response rating, Corn: 0
[6]; [22]
  Morningglory plant response rating: 0
[6]; [24]
  Morningglory plant response rating: 0
[6]; Preemergence, Rate 125 g/ha
  Morningglory plant response rating (0 to 10 scale): 0
[6]; [25]
  Morningglory plant response rating: 0
[6]; [26]
  Morningglory plant response rating: 0
[6]; [27]
  Morningglory plant response rating: 0
[6]; [28]
  Plant response rating, Morningglory: 3
[7]; [22]
  Bedstraw plant response rating: 0
[7]; Preemergence, Rate 125 g/ha
  Bedstraw plant response rating (0 to 10 scale): 0
[7]; [25]
  Bedstraw plant response rating: 0
[7]; [26]
  Bedstraw plant response rating: 0
[7]; [27]
  Bedstraw plant response rating: 0
[7]; [28]
  Plant response rating, Bedstraw: 0
[8]; [22]
  Giant foxtail plant response rating: 0
[8]; [23]
  Giant foxtail plant response rating: 0
[8]; [24]
  Giant foxtail plant response rating: 0
[8]; Preemergence, Rate 125 g/ha
  Giant foxtail plant response rating (0 to 10 scale): 0
[8]; [25]
  Giant foxtail plant response rating: 0
[8]; [26]
  Giant foxtail plant response rating: 0
[8]; [27]
  Giant foxtail plant response rating: 0
[8]; [28]
  Plant response rating, Giant foxtail: 0
[9]; [22]
  Velvetleaf plant response rating: 0
[9]; [24]
  Velvetleaf plant response rating: 0
[9]; Preemergence, Rate 125 g/ha
  Velvetleaf plant response rating (0 to 10 scale): 0
[9]; [25]
  Velvetleaf plant response rating: 0
[9]; [26]
  Velvetleaf plant response rating: 0
[9]; [27]
  Velvetleaf plant response rating: 0
[9]; [28]
  Plant response rating, Velvetleaf: 0
[10]; [18]
  Rice plant response rating: 0
[10]; [19]
  Rice plant response rating: 0
[10]; [20]
  Rice plant response rating: 0
[10]; [21]
  Rice plant response rating: 0
[11]; [22]
  B. signalgrass plant response rating: 0
[11]; [23]
  B. signalgrass plant response rating: 0
[11]; [24]
  B. signalgrass plant response rating: 0
[11]; Preemergence, Rate 125 g/ha
  B. signalgrass plant response rating (0 to 10 scale, 0 is no effect, 10 is complete control): 0
[11]; [25]
  B. signalgrass plant response rating: 0
[11]; [26]
  B. signalgrass plant response rating: 0
[11]; [27]
  B. signalgrass plant response rating: 0
[11]; [28]
  Plant response rating, B. signalgrass: 0
[12]; [18]
  S. Flatsedge plant response rating: 0
[12]; [19]
  S. Flatsedge plant response rating: 0
[12]; [20]
  S. Flatsedge plant response rating: 0
[12]; [21]
  S. Flatsedge plant response rating: 0
[13]; [18]
  Ducksalad plant response rating: 0
[13]; [19]
  Ducksalad plant response rating: 0
[13]; [20]
  Ducksalad plant response rating: 0
[13]; [21]
  Ducksalad plant response rating: 0
[14]; [22]
  Nutsedge plant response rating: 0
[14]; [24]
  Nutsedge plant response rating: 0
[14]; Preemergence, Rate 125 g/ha
  Nutsedge plant response rating (0 to 10 scale): 0
[14]; [26]
  Nutsedge plant response rating: 0
[14]; [27]
  Nutsedge plant response rating: 0
[14]; [28]
  Plant response rating, Nutsedge: 0
[15]; [22]
  Crabgrass plant response rating: 0
[15]; [23]
  Crabgrass plant response rating: 0
[15]; [24]
  Crabgrass plant response rating: 0
[15]; Preemergence, Rate 125 g/ha
  Crabgrass plant response rating (0 to 10 scale): 0
[15]; [25]
  Crabgrass plant response rating: 0
[15]; [26]
  Crabgrass plant response rating: 0
[15]; [27]
  Crabgrass plant response rating: 0
[15]; [28]
  Plant response rating, Crabgrass: 0
[16]; [22]
  Soybean plant response rating: 0
[16]; [24]
  Soybean plant response rating: 0
[16]; Preemergence, Rate 125 g/ha
  Soybean plant response rating (0 to 10 scale): 0
[16]; [25]
  Soybean plant response rating: 0
[16]; [26]
  Soybean plant response rating: 0
[16]; [27]
  Soybean plant response rating: 0
[16]; [28]
  Plant response rating, Soybean: 1
[17]; [22]
  Cocklebur plant response rating: 0
[17]; [23]
  Cocklebur plant response rating: 0
[17]; [24]
  Cocklebur plant response rating: 0
[17]; Preemergence, Rate 125 g/ha
  Cocklebur plant response rating (0 to 10 scale): 0
[17]; [25]
  Cocklebur plant response rating: 0
[17]; [26]
  Cocklebur plant response rating: 0
[17]; [27]
  Cocklebur plant response rating: 0
[17]; [28]
  Plant response rating, Cocklebur: 5
